“And” between values parts separate entries of the source, which are not always exact repeats. Equal entries are not always repeated. Where two headings read alike, the source gives them in different places.

Assay [1] addresses T1, human α4β2δ GABAA receptors (Homo sapiens, UniProt P47870+P48169).
T1 construct: expressed in transfected cells; host or cells: Xenopus laevis oocytes injected with cRNA, 5:1:5 (α4:β2:δ)
The experiment in a line: two-electrode voltage clamp of α4β2δ GABAA receptors expressed in Xenopus laevis oocytes (RAD model analysis). Type of assay: cell-based. The following applies: for EC50: Hill equation; for EC50 / Hill coefficient: mean ± S.D.; for Q (=A/D), equilibrium between active and desensitized states: steady-state currents fitted to Eq. (2), K and c constrained to peak values; for maximal peak open probability (POpen,peak): theoretical/predicted maximum from L, c and N; for calculated steady-state POpen: Eq. (4); for contribution towards stabilization of the open state: N×RT×ln(c), GABA 2 sites, propofol 4 sites. The procedure: The human α4β2δ GABAA receptors were expressed in Xenopus laevis oocytes. Harvesting of oocytes was conducted under the Guide for the Care and Use of Laboratory Animals as adopted and promulgated by the National Institutes of Health. The animal protocol was approved by the Animal Studies Committee of Washington University in St. Louis (Approval No. 20170071).
The cDNAs of individual subunits in the pcDNA3 vector were linearized with Xba I (NEB Labs, Ipswich, MA). The cRNAs were generated using mMessage mMachine (Ambion, Austin, TX). The oocytes were injected with a total of 11 ng cRNA per oocyte in a 5:1:5 (α4:β2:δ) ratio. Following injection, the oocytes were incubated in bath solution (96 mM NaCl, 2 mM KCl, 1.8 mM CaCl2, 1 mM MgCl2, and 5 mM HEPES; pH 7.4) plus supplements (2.5 mM Na pyruvate, 100 U/ml penicillin, 100 μg/ml streptomycin, and 50 μg/ml gentamycin) at 15 °C for 3–4 days prior to conducting electrophysiological recordings.
The recordings were conducted at room temperature using standard two-electrode voltage clamp. The pipets were filled with 3 M KCl. The oocytes were clamped at −60 mV. The chamber (RC-1Z, Warner Instruments, Hamden, CT) was perfused with bath solution (see above) at 5–8 ml/min. Solutions were gravity-applied from 30-ml glass syringes with glass luer slips via Teflon tubing, and switched manually.
The current responses were amplified with an Axoclamp 900A (Molecular Devices, Sunnyvale, CA) or OC-725C amplifier (Warner Instruments, Hamden, CT), digitized with a Digidata 1320 or 1200 series digitizer (Molecular Devices), and stored using pClamp (Molecular Devices).
In such cases, the number of cell provided is given as a range of cell numbers for each concentration point. […] The level of constitutive activity was determined by exposing the cells to 100–300 μM picrotoxin.
The current traces were analyzed using Clampfit (Molecular Devices) to determine the amplitudes of peak and steady-state responses. If steady-state (defined as ΔI < 2% during the last 20 s of agonist application) was not reached by the end of the agonist application, an estimate was made by exponential fitting of the current decay. Fitting was done using pClamp, to a single exponential or sums of up to three exponentials. The constant offset is reported as the steady-state response.

For assay [2], the system named is receptors resulting from the expression of α4, β (β2 or β3), and δ subunits. The following applies: cited from earlier work.
Another assay has as its system α1β2γ2L GABAA receptor. The following applies: cited from earlier work.
The target of another assay is α4β3δ receptors. The following applies: oocytes, cited from earlier work.
For assay [3], the target named is T2, α4β2δ receptor with β2(Y205S) mutation (Homo sapiens, UniProt P47870+P48169, Y229S).
T2 construct: expressed in transfected cells; host or cells: Xenopus laevis oocytes (inferred from the Methods on α4β2δ)
Kind of assay: activation of α4β2δ receptor carrying the β2(Y205S) mutation. The class given is cell-based. The following applies: data not shown.

Assay [4] addresses α1β2γ2L receptor with β2(Y205S) mutation (Homo sapiens, UniProt P14867+P47870, Y229S). The experiment in a line: activation of α1β2γ2L receptor carrying the β2(Y205S) mutation. The class given is cell-based. The following applies: data not shown.
[5] abbreviates: peak currents fitted to Eq. (1).

T1 sequence (P48169 36-554): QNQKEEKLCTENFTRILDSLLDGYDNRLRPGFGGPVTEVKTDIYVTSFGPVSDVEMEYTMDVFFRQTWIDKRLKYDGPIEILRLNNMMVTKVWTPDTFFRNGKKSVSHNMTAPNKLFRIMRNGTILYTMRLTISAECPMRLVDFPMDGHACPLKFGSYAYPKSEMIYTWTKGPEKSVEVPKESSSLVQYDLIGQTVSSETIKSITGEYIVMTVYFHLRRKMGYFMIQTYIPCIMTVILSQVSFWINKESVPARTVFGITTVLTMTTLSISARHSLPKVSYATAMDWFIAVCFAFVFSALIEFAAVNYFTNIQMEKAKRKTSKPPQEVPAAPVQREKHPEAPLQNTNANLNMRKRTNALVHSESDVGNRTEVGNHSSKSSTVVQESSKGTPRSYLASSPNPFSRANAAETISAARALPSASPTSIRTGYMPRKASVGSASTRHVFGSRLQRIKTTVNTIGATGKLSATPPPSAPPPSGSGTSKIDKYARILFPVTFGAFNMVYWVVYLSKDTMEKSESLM
T1 sequence (P47870 25-512 limits assumed): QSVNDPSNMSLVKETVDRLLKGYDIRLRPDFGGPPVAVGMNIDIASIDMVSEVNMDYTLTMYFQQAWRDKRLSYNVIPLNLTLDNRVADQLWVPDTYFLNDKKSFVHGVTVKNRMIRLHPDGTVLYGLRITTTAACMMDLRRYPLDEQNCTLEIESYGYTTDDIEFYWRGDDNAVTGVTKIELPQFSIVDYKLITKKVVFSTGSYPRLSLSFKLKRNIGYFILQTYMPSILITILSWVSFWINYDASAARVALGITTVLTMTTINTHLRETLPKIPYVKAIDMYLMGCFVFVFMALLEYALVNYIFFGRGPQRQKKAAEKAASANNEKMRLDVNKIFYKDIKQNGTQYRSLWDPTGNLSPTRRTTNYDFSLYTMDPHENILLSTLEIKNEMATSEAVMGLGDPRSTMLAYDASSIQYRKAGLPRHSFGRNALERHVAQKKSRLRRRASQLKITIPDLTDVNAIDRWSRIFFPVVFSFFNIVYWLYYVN
T1 sequence (O14764 25-452 partner): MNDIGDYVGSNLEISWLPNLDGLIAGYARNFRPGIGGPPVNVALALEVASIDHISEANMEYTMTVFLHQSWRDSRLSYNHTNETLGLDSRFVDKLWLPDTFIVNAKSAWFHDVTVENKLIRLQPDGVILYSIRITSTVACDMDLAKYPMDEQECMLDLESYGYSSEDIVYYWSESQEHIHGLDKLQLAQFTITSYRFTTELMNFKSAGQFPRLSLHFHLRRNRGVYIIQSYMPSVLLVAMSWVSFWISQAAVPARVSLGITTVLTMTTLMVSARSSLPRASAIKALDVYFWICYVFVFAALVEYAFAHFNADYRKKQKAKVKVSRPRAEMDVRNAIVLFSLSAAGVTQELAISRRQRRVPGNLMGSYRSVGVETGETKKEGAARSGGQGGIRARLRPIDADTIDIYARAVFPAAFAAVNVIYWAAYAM
T2 sequence (P48169 36-554): as the sequence (P48169 36-554) above
T2 sequence (P47870 25-512 Y229S limits assumed): as the sequence (P47870 25-512 limits assumed) above, with Y205S counted along it
T2 sequence (O14764 25-452 partner): as the sequence (O14764 25-452 partner) above
Sequence of α1β2γ2L receptor with β2(Y205S) mutation (P14867 28-456): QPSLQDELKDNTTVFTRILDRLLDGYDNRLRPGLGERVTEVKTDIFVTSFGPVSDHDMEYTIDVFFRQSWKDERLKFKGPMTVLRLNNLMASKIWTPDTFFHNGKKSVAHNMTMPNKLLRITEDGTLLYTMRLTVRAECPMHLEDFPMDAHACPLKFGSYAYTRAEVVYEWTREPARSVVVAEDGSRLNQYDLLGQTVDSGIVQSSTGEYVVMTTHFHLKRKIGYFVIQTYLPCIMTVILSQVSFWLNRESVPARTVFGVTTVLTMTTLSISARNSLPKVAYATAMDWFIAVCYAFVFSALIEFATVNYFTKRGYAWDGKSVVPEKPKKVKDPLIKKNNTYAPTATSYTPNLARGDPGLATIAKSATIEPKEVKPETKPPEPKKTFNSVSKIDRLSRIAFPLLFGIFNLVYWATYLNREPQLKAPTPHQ
Sequence of α1β2γ2L receptor with β2(Y205S) mutation (P47870 25-512 Y229S limits assumed): as the sequence (P47870 25-512 limits assumed) above, with Y205S counted along it
Sequence of α1β2γ2L receptor with β2(Y205S) mutation (P18507 40-475 partner): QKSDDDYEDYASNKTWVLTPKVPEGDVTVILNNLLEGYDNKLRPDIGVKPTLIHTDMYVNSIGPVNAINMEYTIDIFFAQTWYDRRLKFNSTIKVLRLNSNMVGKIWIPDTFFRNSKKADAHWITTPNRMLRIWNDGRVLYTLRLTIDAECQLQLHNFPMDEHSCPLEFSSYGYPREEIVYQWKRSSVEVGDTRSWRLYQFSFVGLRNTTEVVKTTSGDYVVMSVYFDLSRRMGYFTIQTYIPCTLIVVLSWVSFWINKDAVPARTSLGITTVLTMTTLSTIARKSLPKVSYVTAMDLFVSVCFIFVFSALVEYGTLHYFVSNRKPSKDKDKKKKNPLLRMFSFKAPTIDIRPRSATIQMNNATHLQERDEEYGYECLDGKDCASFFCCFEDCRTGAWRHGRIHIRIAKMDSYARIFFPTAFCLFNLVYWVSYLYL

For the molecule `CC(=O)[C@H]1CC[C@H]2[C@@H]3CC[C@H]4C[C@H](O)CC[C@]4(C)[C@H]3CC[C@]12C` [3α5αP, allopregnanolone], in assay [1], the Kd came to 0.21 ± 0.04 µM; the “Q (=A/D), equilibrium between active and desensitized states” value was 0.89 ± 0.33 and 0.89; the “maximal peak open probability (POpen,peak)” value (from here on “maximal peak open probability”) was ~ 0.2. The molecule also showed an EC50 in assay [1] (EC50, peak currents) of 0.23 ± 0.1 µM. For the same molecule, the “cX, ratio of equilibrium dissociation constant of the open receptor to KX” value (“cX, ratio” for short) in assay [1] (setting [5]) stood at 0.68 ± 0.01. Moreover, the Hill coefficient in assay [1] (peak currents) is 1.17 ± 0.30. For the same molecule, in assay [1] (listed as allopregnanolone), the “maximal peak open probability” value is 0.2.

Turning to `O=C(Nc1c(-c2cccs2)nc2ccccn12)c1ccc(Cl)cc1` [DS-2], the direct activation result in assay [1] (isoform investigated in the present study) is listed as “directly activated”. The “effect of DS-2” value in assay [2] (high-affinity isoform) is “directly activated”. Also, in assay [2] (low-affinity isoform), the “effect of DS2” value is recorded as “potentiated but not directly activated”.

Consider `NCCCC(=O)O` [GABA], for which the “calculated steady-state POpen” value in assay [1] (30 nM GABA) was 0.24. For the same molecule, the “open probability (peak)” value in assay [1] (0.3 μM GABA, relative to PTX (0) and 10 μM GABA + 50 μM propofol (1)) is 0.35 ± 0.09. Moreover, in assay [1], the “contribution towards stabilization of the open state” value came out at 0.94 kcal/mol; the “Q (=A/D), equilibrium between active and desensitized states” value was 0.78 ± 0.08 and 0.78; the “maximal peak open probability” value is 0.44 and 0.42 and 0.4 and ~ 0.4. In assay [1] (peak currents), this molecule returned a Hill coefficient of 0.80 ± 0.09. For the same molecule, the “steady-state open probability (POpen,S.S.)” value in assay [1] (saturating GABA) is approximately 0.3. Moreover, the “stabilization energy from binding of two GABA molecules” value in the assay on α1β2γ2L GABAA receptor was 6.4 to 7.5 kcal/mol.

As for `O=c1[nH]oc2c1CCNC2` [THIP], the EC50 at α4β3δ receptors (read-out: high-affinity component of concentration-response curve) is less than 0.1 µM; on α4β3δ receptors (read-out: low-affinity component of concentration-response curve), more than 10 µM.

For `CC(C)c1cccc(C(C)C)c1O` [propofol], in assay [1] (1 μM propofol added to 30 nM GABA, 10 μM taurine, 30 nM 3α5αP, 0.1 μM PS), the “predicted POpen,S.S. after addition of propofol” value is on record as 0.28. Also, the “peak response to 0.3 μM GABA with coapplied propofol” value in assay [1] (1 μM propofol, peak response) is on record as 151 ± 12 % of control. For the same molecule, the “steady-state response to 0.3 μM GABA with propofol” value in assay [1] (1 μM propofol, steady-state response) is recorded as 145 ± 14 % of control. In assay [1] (EC50, peak currents), this molecule yielded an EC50 of 7.3 ± 2 µM. Further, the Kd in assay [1] (KX, equilibrium dissociation constant of the resting receptor, peak currents fitted to Eq. (1), best-fit ± S.E. of the fit) was 55.1 µM and > 50 µM. Moreover, in assay [1], the “contribution towards stabilization of the open state” value was 4.3 kcal/mol; the “Q (=A/D), equilibrium between active and desensitized states” value is 1.29 ± 0.14 and 1.29; the “maximal peak open probability” value is 0.99 and ~ 0.99. Further, the “cX, ratio” value in assay [1] (setting [5]) was determined as 0.16 ± 0.01. In assay [1] (peak currents), the Hill coefficient worked out at 2.17 ± 0.65.

`NCCS(=O)(=O)O` [taurine, 2-aminoethanesulfonic acid]: the “calculated steady-state POpen” value in assay [1] (10 μM taurine) is listed as 0.21. In assay [1] (calculated from steady-state open probability with 1 mM taurine), the “Q (=A/D), calculated value” is 0.52. Also, the steady-state open probability in assay [1] (long (190–410 s) applications of 1 mM taurine) worked out at 0.23 ± 0.04. Besides, the “cX, ratio” value in assay [1] (setting [5]) turned out to be 0.47 ± 0.02. Also, the Kd in assay [1] (peak currents fitted to Eq. (1), best-fit ± S.E. of the fit, read-out: KX, equilibrium dissociation constant of the resting receptor) was determined as 10 ± 2.1 µM. Further, the EC50 in assay [1] (peak currents, read-out: EC50) was 9.8 µM and 10 µM. In assay [1] (peak currents), this molecule had a Hill coefficient of 0.70 ± 0.08. Further, the “maximal peak open probability” value in assay [1] was 0.44 and 0.4 and ~ 0.4. In addition, the activation by taurine in assay [3] and in assay [4] was < 0.2 % of the response to GABA + propofol in each case.

For pregnenolone sulfate [PS], in assay [1] (fit to Eq. (3), 0.3 μM GABA, 1 site), the “dPS, ratio of equilibrium dissociation constant of the desensitized receptor to KPS” value stood at 0.14 ± 0.02. The high concentration asymptote in assay [1] (steady-state current elicited by 0.3 μM GABA) was 50 ± 4 % of control. Further, the dPS in the assay with α1β2γ2L GABAA receptor is listed as 0.11. In addition, the Kd at α1β2γ2L GABAA receptor (read-out: KPS) was 1.9 µM.

As a reminder, the Hill coefficient is a measure of the steepness of the concentration-response curve.
